Laboratory results as given in patent publication US10399940B2, “Substituted pyrrolidines and methods of use” (AbbVie S.à.r.l., priority 2016, dated 2019).
pEC50: −log10 of the molar value. Read-outs that look alike come from different tables or passages of the source.

Target: T1, F508delCFTR (Homo sapiens, UniProt P13569, DEL508-508)
T1 construct: expressed in transfected cells; host or cells: CFBE41o- (human lung derived epithelial cell line), doxycycline-inducible expression
Test: Cell Surface Expression-Horse Radish Peroxidase (CSE-HRP) assay
Format: cell-based
Conditions: CFBE41o-F508delCFTR-HRP cells; for Maximum % activity (with co-corrector): with co-corrector (2 μM); for Maximum % activity (with co-corrector) / Maximum % activity (without co-corrector): normalized to on-plate positive control, highest concentration 20 μM
Outline: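 Surface F508delCFTR-HRP was read by luminol luminescence after 18–24 h compound exposure at 33 °C, without or with 2 μM co-corrector. Doses were eight 3-fold steps from 20 μM, in doxycycline-induced (0.5 μg/mL, 72 h) CFBE41o- cells. % activity was scaled to the on-plate 2 μM positive control minus DMSO; EC50 came from a variable-slope sigmoid fit.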

[1] = test compound without co-corrector, 18-24 hours at 33° C., read-out: EC50 (without co-corrector)
[2] = with co-corrector (2 μM of 3-[(2R,4R)-4-({[1-(2,2-difluoro-1,3-benzodioxol-5-yl)cyclopropyl]carbonyl}amino)-7-methoxy-3,4-dihydro-2H-chromen-2-yl]benzoic acid), read-out: EC50 (with co-corrector)

T1 sequence (P13569 with tags, fused parts or gaps DEL508-508): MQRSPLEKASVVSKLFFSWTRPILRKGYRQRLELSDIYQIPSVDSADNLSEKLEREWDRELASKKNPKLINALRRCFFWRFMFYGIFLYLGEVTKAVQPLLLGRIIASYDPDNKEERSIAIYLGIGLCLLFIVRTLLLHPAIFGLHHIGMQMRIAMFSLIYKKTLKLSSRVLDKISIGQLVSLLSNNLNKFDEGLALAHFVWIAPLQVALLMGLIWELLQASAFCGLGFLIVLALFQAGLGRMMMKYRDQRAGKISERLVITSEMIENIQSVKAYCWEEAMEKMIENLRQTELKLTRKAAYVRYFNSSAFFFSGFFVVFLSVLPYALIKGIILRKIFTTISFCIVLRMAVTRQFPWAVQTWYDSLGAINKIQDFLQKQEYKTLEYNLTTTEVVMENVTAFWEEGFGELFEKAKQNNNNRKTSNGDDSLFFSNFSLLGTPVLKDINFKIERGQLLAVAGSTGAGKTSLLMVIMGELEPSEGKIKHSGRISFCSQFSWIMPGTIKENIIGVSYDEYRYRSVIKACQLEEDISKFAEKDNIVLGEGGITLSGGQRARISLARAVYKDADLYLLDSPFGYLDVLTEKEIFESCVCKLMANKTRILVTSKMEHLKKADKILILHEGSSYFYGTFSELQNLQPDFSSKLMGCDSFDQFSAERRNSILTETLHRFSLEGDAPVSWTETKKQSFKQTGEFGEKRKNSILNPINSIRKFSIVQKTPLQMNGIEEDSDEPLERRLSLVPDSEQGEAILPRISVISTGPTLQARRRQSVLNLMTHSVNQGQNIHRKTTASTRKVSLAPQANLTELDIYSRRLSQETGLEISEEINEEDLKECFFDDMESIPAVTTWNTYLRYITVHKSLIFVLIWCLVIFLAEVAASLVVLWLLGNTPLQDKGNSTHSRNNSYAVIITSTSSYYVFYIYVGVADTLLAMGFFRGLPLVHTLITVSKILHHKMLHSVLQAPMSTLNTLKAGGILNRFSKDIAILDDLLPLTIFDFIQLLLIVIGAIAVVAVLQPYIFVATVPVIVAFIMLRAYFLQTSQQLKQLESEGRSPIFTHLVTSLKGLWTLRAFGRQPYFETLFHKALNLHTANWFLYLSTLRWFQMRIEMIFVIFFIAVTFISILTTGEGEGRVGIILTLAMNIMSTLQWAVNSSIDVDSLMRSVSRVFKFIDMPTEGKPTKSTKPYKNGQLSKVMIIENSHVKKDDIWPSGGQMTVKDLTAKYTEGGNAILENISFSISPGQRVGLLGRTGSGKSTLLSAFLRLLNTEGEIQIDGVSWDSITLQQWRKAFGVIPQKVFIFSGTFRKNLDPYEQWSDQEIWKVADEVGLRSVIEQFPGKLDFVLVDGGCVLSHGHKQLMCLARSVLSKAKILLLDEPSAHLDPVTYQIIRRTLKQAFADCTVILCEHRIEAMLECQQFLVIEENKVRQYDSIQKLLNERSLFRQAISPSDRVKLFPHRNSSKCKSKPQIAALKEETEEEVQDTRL

| Compound | pEC50 [1] | pEC50 [2] | Maximum % activity (with co-corrector) | Maximum % activity (without co-corrector) |
| --- | --- | --- | --- | --- |
| COc1ncc(C2CCC2)cc1CO[C@H]1[C@H](C(C)(C)C)[C@@H](C(=O)O)N(C(=O)OC(C)C)[C@H]1c1ccccc1C(C)C [Example 93, (2S,3R,4S,5S)-3-tert-butyl-4-[(5-cyclobutyl-2-methoxypyridin-3-yl)methoxy]-1-{[(propan-2-yl)oxy]carbonyl}-5-[2-(propan-2-yl)phenyl]pyrrolidine-2-carboxylic acid] | 5.00 to 6.00 | 5.00 to 6.00 | +++ (≥350) | ++ (≥100 and <200) |
| COc1ccc(C(F)(F)F)cc1CO[C@@H]1[C@H](C(C)(C)C)[C@@H](C(=O)O)N(C(=O)OC(C)C)[C@H]1c1cccnc1OC(C)C [Example 94, (2S,3R,4R,5S)-3-tert-butyl-4-{[2-methoxy-5-(trifluoromethyl)phenyl]methoxy}-1-{[(propan-2-yl)oxy]carbonyl}-5-{2-[(propan-2-yl)oxy]pyridin-3-yl}pyrrolidine-2-carboxylic acid] | < 5.00 | > 6.00 | + (<150) | + (<100) |
| COc1ncc(C2CCC2)cc1CO[C@H]1[C@H](C(C)(C)C)[C@@H](C(=O)O)N(C(=O)OC(C)C)[C@H]1c1cccnc1OC(C)C [Example 95, (2S,3R,4S,5S)-3-tert-butyl-4-[(5-cyclobutyl-2-methoxypyridin-3-yl)methoxy]-1-{[(propan-2-yl)oxy]carbonyl}-5-{2-[(propan-2-yl)oxy]pyridin-3-yl}pyrrolidine-2-carboxylic acid] | 5.00 to 6.00 | > 6.00 | +++ (≥350) | ++ (≥100 and <200) |
| COc1ncc(C(F)(F)F)cc1CO[C@H]1[C@H](C(C)(C)C)[C@@H](C(=O)O)N(C(=O)[C@@H]2CCCCO2)[C@H]1c1ccccc1C(C)C [Example 96, (2S,3R,4S,5S)-3-tert-butyl-4-{[2-methoxy-5-(trifluoromethyl)pyridin-3-yl]methoxy}-1-[(2S)-oxane-2-carbonyl]-5-[2-(propan-2-yl)phenyl]pyrrolidine-2-carboxylic acid] | > 6.00 | > 6.00 | +++ (≥350) | +++ (≥200) |
| COc1ncc(C(F)(F)F)cc1CO[C@H]1[C@H](C(C)(C)C)[C@@H](C(=O)O)N(C(=O)[C@H]2CCCCO2)[C@H]1c1ccccc1C(C)C [Example 97, (2S,3R,4S,5S)-3-tert-butyl-4-{[2-methoxy-5-(trifluoromethyl)pyridin-3-yl]methoxy}-1-[(2R)-oxane-2-carbonyl]-5-[2-(propan-2-yl)phenyl]pyrrolidine-2-carboxylic acid] | 5.00 to 6.00 | 5.00 to 6.00 | +++ (≥350) | ++ (≥100 and <200) |
| COc1ncc(C(F)(F)F)cc1CO[C@H]1[C@H](C(C)(C)C)[C@@H](C(=O)O)N(C(=O)[C@@H]2CCCO2)[C@H]1c1ccccc1C(C)C [Example 98, (2S,3R,4S,5S)-3-tert-butyl-4-{[2-methoxy-5-(trifluoromethyl)pyridin-3-yl]methoxy}-1-[(2S)-oxolane-2-carbonyl]-5-[2-(propan-2-yl)phenyl]pyrrolidine-2-carboxylic acid] | > 6.00 | > 6.00 | +++ (≥350) | ++ (≥100 and <200) |
| COc1ncc(C(F)(F)F)cc1CO[C@H]1[C@H](C(C)(C)C)[C@@H](C(=O)O)N(C(=O)OC(C)C)[C@H]1c1ccccc1Cl [Example 99, (2S,3R,4S,5S)-3-tert-butyl-5-(2-chlorophenyl)-4-{[2-methoxy-5-(trifluoromethyl)pyridin-3-yl]methoxy}-1-{[(propan-2-yl)oxy]carbonyl}pyrrolidine-2-carboxylic acid] | 5.00 to 6.00 | 5.00 to 6.00 | +++ (≥350) | ++ (≥100 and <200) |
| COc1cnc(C2CCC2)cc1CO[C@H]1[C@H](C(C)(C)C)[C@@H](C(=O)O)N(C(=O)OC(C)C)[C@H]1c1ccccc1 [Example 100, (2S,3R,4S,5S)-3-tert-butyl-4-[(2-cyclobutyl-5-methoxypyridin-4-yl)methoxy]-5-phenyl-1-{[(propan-2-yl)oxy]carbonyl}pyrrolidine-2-carboxylic acid] | 5.00 to 6.00 | 5.00 to 6.00 | ++ (≥150 and <350) | + (<100) |
| COc1ncc(C(F)(F)F)cc1CO[C@H]1[C@H](C(C)(C)C)[C@@H](C(=O)O)N(C(=O)OC(C)C)[C@H]1c1ccccc1C1CCC1 [Example 101, (2S,3R,4S,5S)-3-tert-butyl-5-(2-cyclobutylphenyl)-4-{[2-methoxy-5-(trifluoromethyl)pyridin-3-yl]methoxy}-1-{[(propan-2-yl)oxy]carbonyl}pyrrolidine-2-carboxylic acid] | 5.00 to 6.00 | 5.00 to 6.00 | +++ (≥350) | ++ (≥100 and <200) |
| COc1ncc(C(F)(F)F)cc1CO[C@H]1[C@H](C(C)(C)C)[C@@H](C(=O)O)N(C(=O)[C@H]2CCCO2)[C@H]1c1ccccc1C(C)C [Example 102, (2S,3R,4S,5S)-3-tert-butyl-4-{[2-methoxy-5-(trifluoromethyl)pyridin-3-yl]methoxy}-1-[(2R)-oxolane-2-carbonyl]-5-[2-(propan-2-yl)phenyl]pyrrolidine-2-carboxylic acid] | 5.00 to 6.00 | 5.00 to 6.00 | ++ (≥150 and <350) | + (<100) |
| COc1ncc(C(F)(F)F)cc1CO[C@H]1[C@H](C(C)(C)C)[C@@H](C(=O)O)N(C(=O)[C@@H]2CCCCO2)[C@H]1c1ccccc1Cl [Example 103, (2S,3R,4S,5S)-3-tert-butyl-5-(2-chlorophenyl)-4-{[2-methoxy-5-(trifluoromethyl)pyridin-3-yl]methoxy}-1-[(2S)-oxane-2-carbonyl]pyrrolidine-2-carboxylic acid] | 5.00 to 6.00 | > 6.00 | +++ (≥350) | ++ (≥100 and <200) |
| COc1ncc(C(F)(F)F)cc1CO[C@H]1[C@H](C(C)(C)C)[C@@H](C(=O)O)N(C(=O)[C@H]2CCCCO2)[C@H]1c1ccccc1Cl [Example 104, (2S,3R,4S,5S)-3-tert-butyl-5-(2-chlorophenyl)-4-{[2-methoxy-5-(trifluoromethyl)pyridin-3-yl]methoxy}-1-[(2R)-oxane-2-carbonyl]pyrrolidine-2-carboxylic acid] | 5.00 to 6.00 | 5.00 to 6.00 | +++ (≥350) | ++ (≥100 and <200) |
| COc1ncc(C(F)(F)F)cc1CO[C@H]1[C@H](C(C)(C)C)[C@@H](C(=O)O)N(C(=O)OC(C)C)[C@H]1c1ccccc1OC(C)C [Example 105, (2S,3R,4S,5S)-3-tert-butyl-4-{[2-methoxy-5-(trifluoromethyl)pyridin-3-yl]methoxy}-1-{[(propan-2-yl)oxy]carbonyl}-5-{2-[(propan-2-yl)oxy]phenyl}pyrrolidine-2-carboxylic acid] | > 6.00 | > 6.00 | +++ (≥350) | ++ (≥100 and <200) |
| COc1nc2ccccc2cc1CO[C@H]1[C@H](C(C)(C)C)[C@@H](C(=O)O)N(C(=O)OC(C)C)[C@H]1c1ccccc1 [Example 106, (2S,3R,4S,5S)-3-tert-butyl-4-[(2-methoxyquinolin-3-yl)methoxy]-5-phenyl-1-{[(propan-2-yl)oxy]carbonyl}pyrrolidine-2-carboxylic acid] | 5.00 to 6.00 | 5.00 to 6.00 | ++ (≥150 and <350) | + (<100) |
| CC(C)OC(=O)N1[C@H](C(=O)O)[C@@H](C(C)(C)C)[C@H](OCc2cc(C(F)(F)F)cnc2O)[C@@H]1c1ccccc1 [Example 107, (2S,3R,4S,5S)-3-tert-butyl-4-{[2-hydroxy-5-(trifluoromethyl)pyridin-3-yl]methoxy}-5-phenyl-1-{[(propan-2-yl)oxy]carbonyl}pyrrolidine-2-carboxylic acid] | 5.00 to 6.00 | 5.00 to 6.00 | ++ (≥150 and <350) | + (<100) |
| COc1ncc(C(F)(F)F)cc1CO[C@H]1[C@H](C(C)(C)C)[C@@H](C(=O)O)N(C(=O)OC(C)C)[C@H]1c1ccccc1C1=CCOCC1 [Example 108, (2S,3R,4S,5S)-3-tert-butyl-5-[2-(3,6-dihydro-2H-pyran-4-yl)phenyl]-4-{[2-methoxy-5-(trifluoromethyl)pyridin-3-yl]methoxy}-1-{[(propan-2-yl)oxy]carbonyl}pyrrolidine-2-carboxylic acid] | 5.00 to 6.00 | 5.00 to 6.00 | +++ (≥350) | ++ (≥100 and <200) |
| COc1ncc(C(F)(F)F)cc1CO[C@H]1[C@H](C(C)(C)C)[C@@H](C(=O)O)N(C(=O)[C@H]2CCOC2)[C@H]1c1ccccc1C(C)C [Example 109, (2S,3R,4S,5S)-3-tert-butyl-4-{[2-methoxy-5-(trifluoromethyl)pyridin-3-yl]methoxy}-1-[(3S)-oxolane-3-carbonyl]-5-[2-(propan-2-yl)phenyl]pyrrolidine-2-carboxylic acid] | 5.00 to 6.00 | 5.00 to 6.00 | ++ (≥150 and <350) | + (<100) |
